Columns and labels:
Format in all cases: functional
UO-31 = experiment: Growth inhibition of human UO31 cells assessed as cell growth at 10^-7 M by sulforhodamine B assay; details: read-out: Activity
PC-3 = experiment: Growth inhibition of human PC3 cells assessed as cell growth at 10^-7 M by sulforhodamine B assay; details: read-out: Activity
MDA-MB-231 [1] = experiment: Growth inhibition of human MDA-MB-231 cells assessed as cell growth at 10^-4 M by sulforhodamine B assay; details: read-out: Activity
DU-145 = experiment: Growth inhibition of human DU145 cells assessed as cell growth at 10^-4 M by sulforhodamine B assay; details: read-out: Activity
BT-549 = experiment: Growth inhibition of human BT549 cells assessed as cell growth at 10^-8 M by sulforhodamine B assay; details: read-out: Activity
HT-29 = experiment: Growth inhibition of human HT-29 cells assessed as cell growth at 10^-6 M by sulforhodamine B assay; details: read-out: Activity
786-0 [2] = experiment: Growth inhibition of human 786-0 cells by sulforhodamine B assay
MDA-MB-468 [3] = experiment: Growth inhibition of human MDA-MB-468 cells assessed as cell growth at 10^-4 M by sulforhodamine B assay; details: read-out: Activity
SK-MEL-5 = experiment: Growth inhibition of human SK-MEL-5 cells assessed as cell growth at 10^-6 M by sulforhodamine B assay; details: read-out: Activity
U-251 = experiment: Growth inhibition of human U251 cells assessed as cell growth at 10^-7 M by sulforhodamine B assay; details: read-out: Activity
OVCAR-4 [4] = experiment: Growth inhibition of human OVCAR4 cells assessed as cell growth at 10^-7 M by sulforhodamine B assay; details: read-out: Activity
MDA-MB-231 [5] = experiment: Growth inhibition of human MDA-MB-231 cells by sulforhodamine B assay
SN12C = experiment: Growth inhibition of human SN12C cells assessed as cell growth at 10^-4 M by sulforhodamine B assay; details: read-out: Activity
[6] = Growth inhibition of human NCI-ADR-RES cells by sulforhodamine B assay
[7] = Growth inhibition of human HCC2998 cells assessed as cell growth at 10^-4 M by sulforhodamine B assay; details: HCC 2998, read-out: Activity
A498 [8] = experiment: Growth inhibition of human A498 cells assessed as cell growth at 10^-6 M by sulforhodamine B assay; details: read-out: Activity
OVCAR-5 [9] = experiment: Growth inhibition of human OVCAR5 cells assessed as cell growth at 10^-6 M by sulforhodamine B assay; details: read-out: Activity
Malme-3M = experiment: Growth inhibition of human MALME-3M cells by sulforhodamine B assay
ACHN = experiment: Growth inhibition of human ACHN cells assessed as cell growth at 10^-4 M by sulforhodamine B assay; details: read-out: Activity
MDA-MB-468 [10] = experiment: Growth inhibition of human MDA-MB-468 cells assessed as cell growth at 10^-7 M by sulforhodamine B assay; details: read-out: Activity
MOLT-4 = experiment: Growth inhibition of human MOLT4 cells assessed as cell growth at 10^-7 M by sulforhodamine B assay; details: read-out: Activity
OVCAR-4 [11] = experiment: Growth inhibition of human OVCAR4 cells assessed as cell growth at 10^-8 M by sulforhodamine B assay; details: read-out: Activity
SR = experiment: Growth inhibition of human SR cells assessed as cell growth at 10^-4 M by sulforhodamine B assay; details: read-out: Activity
[12] = Growth inhibition of human NCI-ADR-RES cells assessed as cell growth at 10^-4 M by sulforhodamine B assay; details: read-out: Activity
NCI-H322M = experiment: Growth inhibition of human NCI-H322M cells assessed as cell growth at 10^-4 M by sulforhodamine B assay; details: read-out: Activity
SF-295 [13] = experiment: Growth inhibition of human SF295 cells assessed as cell growth at 10^-7 M by sulforhodamine B assay; details: read-out: Activity
SW-620 = experiment: Growth inhibition of human SW620 cells assessed as cell growth at 10^-4 M by sulforhodamine B assay; details: read-out: Activity
UACC-257 = experiment: Growth inhibition of human UACC257 cells assessed as cell growth at 10^-6 M by sulforhodamine B assay; details: read-out: Activity
OVCAR-5 [14] = experiment: Growth inhibition of human OVCAR5 cells assessed as cell growth at 10^-8 M by sulforhodamine B assay; details: read-out: Activity
KM12 = experiment: Growth inhibition of human KM12 cells assessed as cell growth at 10^-6 M by sulforhodamine B assay; details: read-out: Activity
SF-268 [15] = experiment: Growth inhibition of human SF268 cells assessed as cell growth at 10^-6 M by sulforhodamine B assay; details: read-out: Activity
SNB-75 = experiment: Growth inhibition of human SNB75 cells assessed as cell growth at 10^-4 M by sulforhodamine B assay; details: read-out: Activity
UACC-62 = experiment: Growth inhibition of human UACC62 cells assessed as cell growth at 10^-4 M by sulforhodamine B assay; details: read-out: Activity
A498 [16] = experiment: Growth inhibition of human A498 cells by sulforhodamine B assay
[17] = Growth inhibition of human HCC2998 cells by sulforhodamine B assay
CCRF-CEM = experiment: Growth inhibition of human CCRF-CEM cells assessed as cell growth at 10^-6 M by sulforhodamine B assay; details: read-out: Activity
SF-295 [18] = experiment: Growth inhibition of human SF295 cells assessed as cell growth at 10^-8 M by sulforhodamine B assay; details: read-out: Activity
OVCAR-3 = experiment: Growth inhibition of human OVCAR3 cells assessed as cell growth at 10^-7 M by sulforhodamine B assay; details: read-out: Activity
SF-268 [19] = experiment: Growth inhibition of human SF268 cells assessed as cell growth at 10^-4 M by sulforhodamine B assay; details: read-out: Activity
HL-60(TB) = experiment: Growth inhibition of human HL-60(TB) cells assessed as cell growth at 10^-7 M by sulforhodamine B assay; details: read-out: Activity
HCT-15 = experiment: Growth inhibition of human HCT15 cells assessed as cell growth at 10^-7 M by sulforhodamine B assay; details: read-out: Activity
786-0 [20] = experiment: Growth inhibition of human 786-0 cells assessed as cell growth at 10^-8 M by sulforhodamine B assay; details: read-out: Activity
[21] = read-out: LC50 (the source's name)
[22] = read-out: pLC50 (the source's name) (converted)

C/C=C(/C)C(=O)O[C@@H]1CC(C)(C)C[C@H]2C3=CC[C@@H]4[C@@]5(C)CC[C@H](O)C(C)(C)[C@@H]5CC[C@@]4(C)[C@]3(C)CC[C@@]12C(=O)O [Reduced Lantadene A]
growth at 0.1 µM (UO-31): 96% | growth at 0.1 µM (PC-3): 88% | growth at 100 µM (MDA-MB-231 [1]): -63% | growth at 100 µM (DU-145): -46% | growth at 0.01 µM (BT-549): 99% | growth at 1 µM (HT-29): 105% | GI50 (786-0 [2]; read-out: GI50): 1.81 µM | CC50 (786-0 [2]; [21]): 6.44 µM | TGI (786-0 [2]; read-out: TGI): 3.41 µM | GI50 (786-0 [2]; read-out: pGI50 (converted)): 1.82 µM | CC50 (786-0 [2]; [22]): 6.46 µM | TGI (786-0 [2]; read-out: pTGI (converted)): 3.39 µM | growth at 100 µM (MDA-MB-468 [3]): -86% | growth at 1 µM (SK-MEL-5): 83% | growth at 0.1 µM (U-251): 90% | growth at 0.1 µM (OVCAR-4 [4]): 99% | GI50 (MDA-MB-231 [5]; read-out: GI50): 1.65 µM | CC50 (MDA-MB-231 [5]; [21]): 5.98 µM | TGI (MDA-MB-231 [5]; read-out: TGI): 3.14 µM | GI50 (MDA-MB-231 [5]; read-out: pGI50 (converted)): 1.66 µM | CC50 (MDA-MB-231 [5]; [22]): 6.03 µM | TGI (MDA-MB-231 [5]; read-out: pTGI (converted)): 3.16 µM | growth at 100 µM (SN12C): -51% | GI50 ([6]; read-out: GI50): 2.17 µM | CC50 [6, 21]: > 100 µM | TGI ([6]; read-out: TGI): 5 µM | GI50 ([6]; read-out: pGI50 (converted)): 2.19 µM | CC50 [6, 22]: > 100 µM | TGI ([6]; read-out: pTGI (converted)): 5.01 µM | growth at 100 µM [7]: -58% | growth at 1 µM (A498 [8]): 78% | growth at 1 µM (OVCAR-5 [9]): 113% | GI50 (Malme-3M; read-out: GI50): 1.83 µM | CC50 (Malme-3M; [21]): 7.7 µM | TGI (Malme-3M; read-out: TGI): 3.75 µM | GI50 (Malme-3M; read-out: pGI50 (converted)): 1.82 µM | CC50 (Malme-3M; [22]): 7.76 µM | TGI (Malme-3M; read-out: pTGI (converted)): 3.72 µM | growth at 100 µM (ACHN): -69% | growth at 0.1 µM (MDA-MB-468 [10]): 86% | growth at 0.1 µM (MOLT-4): 98% | growth at 0.01 µM (OVCAR-4 [11]): 97% | growth at 100 µM (SR): -13% | growth at 100 µM [12]: -30% | growth at 100 µM (NCI-H322M): -71% | growth at 0.1 µM (SF-295 [13]): 90% | growth at 100 µM (SW-620): -32% | growth at 1 µM (UACC-257): 95% | growth at 0.01 µM (OVCAR-5 [14]): 100% | growth at 1 µM (KM12): 69% | growth at 1 µM (SF-268 [15]): 104% | growth at 100 µM (SNB-75): -47% | growth at 100 µM (UACC-62): -70% | GI50 (A498 [16]; read-out: GI50): 1.54 µM | CC50 (A498 [16]; [21]): 7.38 µM | TGI (A498 [16]; read-out: TGI): 3.37 µM | GI50 (A498 [16]; read-out: pGI50 (converted)): 1.55 µM | CC50 (A498 [16]; [22]): 7.41 µM | TGI (A498 [16]; read-out: pTGI (converted)): 3.39 µM | GI50 ([17]; HCC 2998, read-out: GI50): 1.88 µM | CC50 ([17]; HCC 2998, read-out: LC50 (the source's name)): 6.43 µM | TGI ([17]; HCC 2998, read-out: TGI): 3.47 µM | GI50 ([17]; HCC 2998, read-out: pGI50 (converted)): 1.86 µM | CC50 ([17]; HCC 2998, read-out: pLC50 (the source's name) (converted)): 6.46 µM | TGI ([17]; HCC 2998, read-out: pTGI (converted)): 3.47 µM | growth at 1 µM (CCRF-CEM): 90% | growth at 0.01 µM (SF-295 [18]): 93% | growth at 0.1 µM (OVCAR-3): 112% | growth at 100 µM (SF-268 [19]): -34% | growth at 0.1 µM (HL-60(TB)): 110% | growth at 0.1 µM (HCT-15): 101% | growth at 0.01 µM (786-0 [20]): 101%
